Each compound was assayed against T1, CCR9 (Homo sapiens, UniProt P51686) (assay: FLIPR calcium flux assay using MOLT4 cells (TECK stimulation)). Conditions: MOLT4 cells (a human T-cell line); Ki determined from IC50 of TECK-induced intracellular calcium increase.
T1 sequence (P51686 1-369): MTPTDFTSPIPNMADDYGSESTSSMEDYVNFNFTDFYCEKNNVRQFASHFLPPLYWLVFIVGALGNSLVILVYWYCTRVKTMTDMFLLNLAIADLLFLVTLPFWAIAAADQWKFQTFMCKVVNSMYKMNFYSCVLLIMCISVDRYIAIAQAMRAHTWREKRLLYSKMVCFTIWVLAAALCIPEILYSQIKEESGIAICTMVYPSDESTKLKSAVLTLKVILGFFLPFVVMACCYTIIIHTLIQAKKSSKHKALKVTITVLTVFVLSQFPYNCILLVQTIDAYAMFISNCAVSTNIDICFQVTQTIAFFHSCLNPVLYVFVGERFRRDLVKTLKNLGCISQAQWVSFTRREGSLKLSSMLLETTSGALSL
Type: cell-based
Set-up: endogenous in cells; host or cells: MOLT4 (human T-cell line)
Protocol: Biological Activity: FLIPR Assay Using MOLT4 Cells
A calcium flux assay was used to determine the ability of the compounds to interfere with the binding between CCR9 and its chemokine ligand (TECK) in MOLT4 cells (a human T-cell line). MOLT4 cells were seeded (100,000 cells/well) in coming cell culture plates (Cat #3603) in assay buffer (lx HBSS, 20 mM HEPES) containing 2.5 mM Probenecid. The plate was centrifuged at 1200 rpm for 3 minutes and incubated at 37° C./5% CO2 for 2 hours. A 0.3× Fluo-4 NW calcium dye was prepared in assay buffer containing 5 mM Probenecid and stored in the dark. Each well was loaded with 25 μL of 0.3× Fluo-4 NW calcium dye and incubated at 37 C/5% CO2 for 60 minutes and then at room temperature for 30 minutes. A half-log serially diluted concentration response curve was prepared at a 4× concentration for each (10 μM-0.1 nM final assay concentration) and 25 μL of the compound then transferred to the cells (100 μL final volume) for 60 minutes prior to stimulation (30 minutes at 37° C./5% CO2 and 30 minutes at room temperature). TECK was diluted to 5× its EC50 in assay buffer (containing 0.1% [w/v] bovine serum albumin [BSA]) and 25 μL dispensed through the FLIPR instrument to stimulate the cells (125 μL final volume). The increased in intracellular calcium levels was measured with the FLIPR instrument. The potency of the compound as CCR9 antagonist was calculated as an IC50 using GraphPad Prism software (variable slope four parameter). The Ki of the compound was determined from the IC50 values using the following equation.
(§1) Ki calculation: IC50/1+(Agonist (TECK) conc. used in assay/EC50 of agonist (TECK) generated on day of experiment)

| SMILES | Ki [nM] |
| --- | --- |
| Cc1cc2nccc(NS(=O)(=O)c3ccc(-c4cnco4)cc3)n2n1 [Compound 1, N-(2-methylpyrazolo[1,5-a]pyrimidin-7-yl)-4-(oxazol-5-yl)benzenesulfonamide] | 19 |
| Cc1cc2nccc(NS(=O)(=O)c3ccc(C(C)(C)C)cc3)n2n1 [Compound 3] | 315 |
| Cc1cc2nccc(NS(=O)(=O)c3ccc(N4CCOCC4)cc3)n2n1 [Compound 22] | 4000 |
| Cc1cc2nccc(NS(=O)(=O)c3ccc(C(F)(F)F)cc3)n2n1 [Compound 23] | 1700 |
| Cc1cc2nccc(NS(=O)(=O)c3ccc(Br)cc3)n2n1 [Compound 28] | 6190 |
| Cc1cc2nccc(NS(=O)(=O)c3cccc(C(C)(C)C)c3)n2n1 [Compound 32] | 1780 |
| Cc1cc2nccc(NS(=O)(=O)c3ccc(OC(F)F)cc3)n2n1 [Compound 33] | 1210 |
| O=S(=O)(Nc1ccnc2cc(C3CC3)nn12)c1cccc(C(F)(F)F)c1 [Compound 39] | 5890 |
| O=S(=O)(Nc1ccnc2cc(C3CC3)nn12)c1ccc(C(F)(F)F)cc1 [Compound 41] | 1880 |
| O=S(=O)(Nc1ccnc2cc(C3CC3)nn12)c1ccc(OC(F)(F)F)cc1 [Compound 42] | 1590 |
| CC(C)(C)c1cccc(S(=O)(=O)Nc2ccnc3cc(C4CC4)nn23)c1 [Compound 44] | 1420 |
| O=S(=O)(Nc1ccnc2cc(C3CC3)nn12)c1cccc(OC(F)(F)F)c1 [Compound 50] | 3750 |
| O=S(=O)(Nc1ccnc2cc(C3CC3)nn12)c1ccc(OC(F)F)cc1 [Compound 51] | 3200 |
| CC(C)(C)c1ccc(S(=O)(=O)Nc2ccnc3cc(-c4cccnc4)nn23)cc1 [Compound 62, 4-(tert-butyl)-N-(2-(pyridin-3-yl)pyrazolo[1,5-a]pyrimidin-7-yl)benzenesulfonamide] | 253 |
| CC(C)(C)c1ccc(S(=O)(=O)Nc2ccnc3cc(-c4ccc(C#N)cc4)nn23)cc1 [Compound 75, 4-(tert-butyl)-N-(2-(4-cyanophenyl)pyrazolo[1,5-a]pyrimidin-7-yl)benzenesulfonamide] | 1550 |
| CCc1cc2nccc(NS(=O)(=O)c3ccc(Cl)c(C(F)(F)F)c3)n2n1 [Compound 87] | 3230 |
| O=S(=O)(Nc1ccnc2cc(-c3ccc(Cl)cc3)nn12)c1ccc(-c2cnco2)cc1 [Compound 90] | 1380 |
| CC(C)c1cc2c(Cl)ccc(NS(=O)(=O)c3ccc(C(F)(F)F)cc3)n2n1 [Compound 101] | 492 |
| CCc1cc2c(Cl)ccc(NS(=O)(=O)c3ccc(C(F)(F)F)cc3)n2n1 [Compound 106] | 177 |
| O=S(=O)(Nc1ccc(Cl)c2cc(C3CC3)nn12)c1ccc(Cl)c(C(F)(F)F)c1 [Compound 108] | 456 |
| O=S(=O)(Nc1ccc(Cl)c2cc(-c3cccnc3)nn12)c1ccc(OC(F)(F)F)cc1 [Compound 112] | 92 |
| O=S(=O)(Nc1ccc(Cl)c2cc(-c3cccnc3)nn12)c1ccc(F)cc1 [Compound 115] | 640 |
| O=S(=O)(Nc1ccc(Cl)c2cc(-c3ccc[n+]([O-])c3)nn12)c1ccc(OC(F)(F)F)cc1 [Compound 116] | 1030 |

| SMILES | Ki [nM] |
| --- | --- |
| CC(C)(C#N)c1ccc(S(=O)(=O)Nc2ccc(Cl)c3cc(-c4cccnc4)nn23)cc1 [Compound 123] | 219 |
| COc1cc(-c2cc3c(Cl)ccc(NS(=O)(=O)c4ccc(C(C)C)cc4)n3n2)c[n+]([O-])c1 [Compound 126] | 73 |
| COc1cncc(-c2cc3c(Cl)ccc(NS(=O)(=O)c4ccc(C(C)(C)C)cc4)n3n2)c1 [Compound 127] | 192 |
| COc1cncc(-c2cc3c(Cl)ccc(NS(=O)(=O)c4ccc(C(F)(F)F)cc4)n3n2)c1 [Compound 128] | 170 |
| CC(C)(C)c1ccc(S(=O)(=O)Nc2ccc(Cl)c3cc(-c4cncc(F)c4)nn23)cc1 [Compound 132] | 171 |
| O=S(=O)(Nc1ccc(Cl)c2cc(-c3cncc(F)c3)nn12)c1ccc(C(F)(F)F)cc1 [Compound 133] | 182 |
| Cn1nccc1-c1cc2c(Cl)ccc(NS(=O)(=O)c3ccc(C(C)(C)C)cc3)n2n1 [Compound 143] | 105 |
| CC(C)(C)c1ccc(S(=O)(=O)Nc2ccc(C#N)c3cc(-c4ccncc4)nn23)cc1 [Compound 150] | 39 |
| CC(C)(C)c1ccc(S(=O)(=O)Nc2ccc(C#N)c3cc(-c4cncc(C#N)c4)nn23)cc1 [Compound 154, 4-(tert-butyl)-N-(4-cyano-2-(5-cyanopyridin-3-yl)pyrazolo[1,5-a]pyridin-7-yl)benzenesulfonamide] | 76 |
| COc1cncc(-c2cc3c(Br)ccc(NS(=O)(=O)c4ccc(C(C)(C)C)cc4)n3n2)c1 [Compound 160] | 170 |
| Cn1cc(-c2cc3c(Br)ccc(NS(=O)(=O)c4ccc(C(C)(C)C)cc4)n3n2)cn1 [Compound 165, 4-(tert-butyl)-N-(4-bromo-2-(1-methyl-1H-pyrazol-4-yl)pyrazolo[1,5-a]pyridin-7-yl)benzenesulfonamide] | 129 |
| CC(C)(C)c1ccc(S(=O)(=O)Nc2ccc(C#N)c3cc(-c4cnco4)nn23)cc1 [Compound 170, 4-(tert-butyl)-N-(4-cyano-2-(oxazol-5-yl)pyrazolo[1,5-a]pyridin-7-yl)benzenesulfonamide] | 27 |
| COc1ccc(NS(=O)(=O)c2ccc(C(C)(C)C)cc2)n2nc(-c3cccnc3)cc12 [Compound 173, 4-(tert-butyl)-N-(4-methoxy-2-(pyridin-3-yl)pyrazolo[1,5-a]pyridin-7-yl)benzenesulfonamide] | 377 |
| CCn1cc(-c2cc3c(Cl)ccc(NS(=O)(=O)c4ccc(C(C)(C)C)cc4)n3n2)cn1 [Compound 185] | 116 |
| Cc1c(-c2cc3c(Cl)ccc(NS(=O)(=O)c4ccc(C(C)(C)C)cc4)n3n2)cnn1C [Compound 187] | 318 |
| CC(C)(C)c1ccc(S(=O)(=O)Nc2ccc(Cl)c3cc(-c4cnccn4)nn23)cc1 [Compound 188] | 194 |
| CC(C)(C)c1ccc(S(=O)(=O)Nc2ccc(C#N)c3cc(-c4ccccn4)nn23)cc1 [Compound 193] | 81 |
| CCOc1ccc(-c2cc3c(Cl)ccc(NS(=O)(=O)c4ccc(C(C)(C)C)cc4)n3n2)cn1 [Compound 194] | 110 |
| CCOc1ccc(-c2cc3c(C#N)ccc(NS(=O)(=O)c4ccc(C(C)(C)C)cc4)n3n2)cn1 [Compound 195] | 34 |
| COc1ccc(-c2cc3c(Cl)ccc(NS(=O)(=O)c4ccc(C(C)(C)C)cc4)n3n2)cn1 [Compound 197] | 189 |
| COc1ncccc1-c1cc2c(Cl)ccc(NS(=O)(=O)c3ccc(C(C)(C)C)cc3)n2n1 [Compound 201] | 192 |
| Cc1ccncc1-c1cc2c(Cl)ccc(NS(=O)(=O)c3ccc(C(C)(C)C)cc3)n2n1 [Compound 208] | 88 |
| COc1ccc(-c2cc3c(C#N)ccc(NS(=O)(=O)c4ccc(C(C)(C)C)cc4)n3n2)c(OC)n1 [Compound 210] | 149 |

Each compound was assayed against T1, CCR9 (assay: FLIPR calcium flux assay using hCCR9 over expressed cells (TECK stimulation)). Conditions: Chem1-hCCR9 overexpressing cells; Ki determined from IC50 of TECK-induced intracellular calcium increase.
Type: cell-based
Set-up: expressed in transfected cells; host or cells: Chem-1 cells overexpressing hCCR9
Protocol: Biological Activity: FLIPR Assay Using hCCR9 Over Expressed Cells
A calcium flux assay was used to determine the ability of the compounds to interfere with the binding between CCR9 and its chemokine ligand (TECK) in Cheml-hCCR9 overexpressing cells. hCCR9 overexpressing cells were seeded (25,000 cells/well) into black Poly-D-Lysine coated clear bottom 96-well plates (BD Biosciences, Cat #356640) and incubated overnight at 37° C./5% CO2 in a humidified incubator. Media was aspirated and cells washed twice with 100 μL assay buffer (1×HBSS, 20 mM HEPES) containing 2.5 mM Probenecid. A 0.3× Fluo-4 NW calcium dye was prepared in assay buffer containing 5 mM Probenecid and stored in the dark. Each well was loaded with 100 μL of 0.3× Fluo-4 NW calcium dye and incubated at 37° C./5% CO2 for 60 minutes and then at room temperature for 30 minutes. A half-log serially diluted concentration response curve was prepared at a 3× final assay concentration for each compound (10 μM−0.1 nM final assay concentration) and 50 μL of the compound then transferred to the cells (150 μL final volume) for 60 minutes prior to stimulation (30 minutes at 37° C./5% CO2 and 30 minutes at room temperature). TECK was diluted to 4× its ECso in assay buffer (containing 0.1% [w/v] bovine serum albumin[BSA]) and 50 μL dispensed through the fluorometric imaging plate reader (FLIPR) instrument to stimulate the cells (200 μL final volume). The increase in intracellular calcium levels was measured with the FLIPR instrument. The potency of the compound as a CCR9 antagonist was calculated as an IC50 using GraphPad Prism software (variable slope four parameter). The Ki of the compound was determined from the IC50 values using the following equation.
as §1

| SMILES | Ki [nM] |
| --- | --- |
| Cc1cc2nccc(NS(=O)(=O)c3ccc(-c4cnco4)cc3)n2n1 [Compound 1, N-(2-methylpyrazolo[1,5-a]pyrimidin-7-yl)-4-(oxazol-5-yl)benzenesulfonamide] | 456 |
| Cc1cc2nccc(NS(=O)(=O)c3ccc(C(C)(C)C)cc3)n2n1 [Compound 3] | 1440 |

From patent publication US20170002011A1, “BENZENE SULFONAMIDES AS CCR9 INHIBITORS” (NORGINE B.V., priority 2013, published 2017)
